# Data as given in patent publication US8535731B2, “Use of extracts of the Cassia alata plant” (BASF Beauty Care Solutions France S.A.S., priority 2000, dated 2013).
# System: human keratinocytes
# Assay: Inhibition of apoptosis induced by growth factor deficiency, cell count and BrdU ELISA of cytoplasmic DNA fragments
# Format: cell-based
# Details: 30 ng/ml, percent of control
# Experimental: The ability of the plant extracts of Cassia alata to prevent apoptosis induced by a deficiency of growth factors in human skin cells was investigated. The test was conducted in vitro on human fibroblasts and human keratinocytes. The human cells were cultivated in a nutrient medium (DMEM=Dulbecco […] from Life Technologie S.a.r.l.) containing 10% of foetal calf serum (from Dutcher). Bromodeoxyuridine (BrdU) was added to this nutrient medium. It was incorporated in the DNA and was subsequently used to detect the DNA fragments in the cytoplasm. After two days' incubation, the nutrient medium was replaced by nutrient medium (DMEM) with no foetal calf serum. The active substance to be tested was added. […] For comparison, a cell sample was incubated without any active substance to be tested (quantities and concentrations shown in Tables 5 and 6).
# After incubation for one or two days at 37° C., the cells were recovered by trypsination using the Dunnebacke and Zitcer method described in Cell and Tissue Culture, Ed.: J. Paul, Churchill Livingstone, 1975, p. […] After the trypsin treatment, the cells were centrifuged and counted. The BrdU content in DNA fragments from the cytoplasm was then determined by the ELISA Test (ELISA Kit from Roche). […]
substance,measurement,value
"EGF: known growth factor Epidermal Growth Factor, polypeptide of 53 amino acids",Cell counting,121%
same,Content of DNA fragments in the cytoplasm,32%
